In assay [1] the target is T1, Serine/threonine-protein kinase LATS1 (Homo sapiens) (UniProt O95835).
T1 sequence (whole entry): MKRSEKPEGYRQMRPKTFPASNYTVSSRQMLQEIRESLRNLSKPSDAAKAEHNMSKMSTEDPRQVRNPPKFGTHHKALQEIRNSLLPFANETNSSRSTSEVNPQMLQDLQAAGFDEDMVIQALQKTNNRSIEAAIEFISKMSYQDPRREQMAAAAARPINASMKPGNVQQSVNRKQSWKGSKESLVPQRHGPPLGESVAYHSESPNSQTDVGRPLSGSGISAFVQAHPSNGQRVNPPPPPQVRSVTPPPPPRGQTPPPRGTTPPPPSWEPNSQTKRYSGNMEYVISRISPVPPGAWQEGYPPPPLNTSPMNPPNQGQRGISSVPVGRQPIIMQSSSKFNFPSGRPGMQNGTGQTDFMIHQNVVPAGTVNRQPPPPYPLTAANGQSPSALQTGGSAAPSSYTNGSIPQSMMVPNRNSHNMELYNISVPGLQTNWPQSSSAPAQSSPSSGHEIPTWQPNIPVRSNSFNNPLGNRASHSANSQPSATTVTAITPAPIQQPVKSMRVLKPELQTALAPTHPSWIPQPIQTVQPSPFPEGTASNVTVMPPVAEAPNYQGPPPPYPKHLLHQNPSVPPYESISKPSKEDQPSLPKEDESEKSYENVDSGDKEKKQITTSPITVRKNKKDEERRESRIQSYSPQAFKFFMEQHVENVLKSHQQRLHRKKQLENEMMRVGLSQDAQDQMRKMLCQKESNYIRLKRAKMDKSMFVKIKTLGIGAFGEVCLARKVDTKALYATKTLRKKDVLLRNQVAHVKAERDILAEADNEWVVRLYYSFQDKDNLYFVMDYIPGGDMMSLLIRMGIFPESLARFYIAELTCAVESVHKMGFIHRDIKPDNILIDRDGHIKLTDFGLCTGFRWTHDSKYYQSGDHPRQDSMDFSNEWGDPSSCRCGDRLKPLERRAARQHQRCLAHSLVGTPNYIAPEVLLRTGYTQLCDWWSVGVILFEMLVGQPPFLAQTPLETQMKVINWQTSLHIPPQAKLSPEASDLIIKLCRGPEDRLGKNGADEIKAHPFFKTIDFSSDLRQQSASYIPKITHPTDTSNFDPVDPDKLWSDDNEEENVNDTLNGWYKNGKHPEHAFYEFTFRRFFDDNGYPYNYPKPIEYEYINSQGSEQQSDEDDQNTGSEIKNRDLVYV
In words: Inhibition of LATS1 (unknown origin) phosporylation relative to control. The following applies: dose 10.0 µM.

For assay [2], the target named is Transcriptional coactivator YAP1 (Homo sapiens) (UniProt P46937). In words: Inhibition of YAP (unknown origin) phosporylation relative to control. The following applies: concentration not given here.
Transcriptional coactivator YAP1 (Homo sapiens), sequence (P46937 whole entry): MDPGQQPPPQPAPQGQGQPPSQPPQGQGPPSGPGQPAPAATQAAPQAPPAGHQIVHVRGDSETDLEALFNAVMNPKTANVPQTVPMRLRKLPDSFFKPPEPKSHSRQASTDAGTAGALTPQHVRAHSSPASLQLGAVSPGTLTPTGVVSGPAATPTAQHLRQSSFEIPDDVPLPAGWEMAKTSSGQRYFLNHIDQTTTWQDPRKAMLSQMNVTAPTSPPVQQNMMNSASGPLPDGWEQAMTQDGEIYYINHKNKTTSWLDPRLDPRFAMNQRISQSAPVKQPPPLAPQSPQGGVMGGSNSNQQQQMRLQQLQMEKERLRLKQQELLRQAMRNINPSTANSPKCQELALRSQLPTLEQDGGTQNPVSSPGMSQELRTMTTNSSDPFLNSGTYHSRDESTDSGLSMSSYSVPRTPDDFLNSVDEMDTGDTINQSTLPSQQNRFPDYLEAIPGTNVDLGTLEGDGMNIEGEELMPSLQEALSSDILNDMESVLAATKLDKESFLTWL

Drawing on ChEMBL document CHEMBL5247606, “Advances of targeting the YAP/TAZ-TEAD complex in the hippo pathway for the treatment of cancers” (Eur J Med Chem, 2022), this text covers inhibition for one compound.

The inhibition is the share of the control response that was lost under treatment. A higher inhibition goes with strong suppression. Regarding `CCOc1cc2ncc(C#N)c(Nc3ccc(OCc4ccccn4)c(Cl)c3)c2cc1NC(=O)/C=C/CN(C)C`, the inhibition in assay [1] and in assay [2] was below 30% in each case.
